The record followed here is ChEMBL document CHEMBL1201862, “PubChem BioAssay data set” (2004).

Calls of active or inactive are those of the source.

The term IC50 denotes the concentration needed to halve the response being measured. As a reminder, the EC50 is the midpoint of the concentration-response curve. One may read the AC50 as the concentration giving half of the maximal activity seen.

Experiment [1] has as its target T1, Ubiquitin-conjugating enzyme E2 N (Homo sapiens, UniProt P61088).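 Also: Dose-response confirmation in a TR-FRET assay detecting UBC13-driven polyubiquitin chain formation, inhibition measured.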
T1 sequence (P61088 whole entry): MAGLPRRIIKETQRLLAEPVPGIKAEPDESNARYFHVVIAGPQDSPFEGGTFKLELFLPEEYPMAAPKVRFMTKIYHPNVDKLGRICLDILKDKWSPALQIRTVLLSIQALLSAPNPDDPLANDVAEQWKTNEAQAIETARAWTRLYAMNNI
The experiment is classed as functional.

A short description of experiment [2]: inhibitors of firefly luciferase expression or activity, dose response, H4 neuroglioma cells, luminescence (AID 1990). The experiment is classed as functional, cell-based.
Experiment [3] in a line: inhibitors of SNCA 5'UTR-driven reporter translation, confirmation, H4 neuroglioma cells, luminescence (AID 1988). The experiment is classed as functional, cell-based.
Experiment [4] relates to BJ. Briefly: cytotoxicity toward BJ-TERT-LT-ST fibroblasts, dose response, cell-based, RAS-independent, luminescence (AID 1935).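 Also: BJ fibroblasts immortalized with TERT plus LT and ST oncogenes.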 As to conditions: Homo sapiens. The experiment is classed as functional.
In experiment [5] the test system is BJ. Briefly: cells. The experiment is classed as functional, cell-based. As to conditions: Homo sapiens.
The nature of experiment [6]: Shn3 3'UTR reporter inhibitors, dose response, cell-based, Clone20 osteoblasts, firefly luciferase, cherry-picked (AID 624132).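 Also: firefly luciferase luminescence from reporter carrying the Shn3 3'UTR in osteoblasts.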 The experiment is classed as functional.
For experiment [7], the system named is BJ. Briefly: cytotoxicity toward Ras-transformed BJeLR fibroblasts, dose response, cell-based, alamar blue fluorescence, cherrypicked samples (AID 2631).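 Also: confirmatory dose-response assay in RAS-dependent BJ fibroblasts engineered with TERT, LT and ST, with cytotoxicity read by fluorescence.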 The experiment is classed as functional. As to conditions: Homo sapiens. A general note: The colour change of resazurin is a common sign of viable cells or microbes.
Experiment [8] concerns BJ. The experiment in a line: cytotoxicity toward BJ-TERT fibroblasts, dose response, cell-based, RAS-independent, luminescence (AID 1933). Particulars: Homo sapiens. The experiment is classed as functional.
Experiment [9] in a line: Luminescence Cell-Based Dose Response HTS to Identify Inhibitors of 5'UTR Stem-Loop Driven Prion Protein mRNA Translation in H4 Neuroglioblastoma Cells. [Related pubchem assays: 1827 (Project Summary), 1813 (Primary HTS)]. The experiment is classed as functional.
Experiment [10] is described as follows: cytotoxicity toward DRD oncogenic fibroblasts, dose response, cell-based, non-viral oncogenic, luminescence (AID 1934). The experiment is classed as functional. Particulars: Homo sapiens.
Experiment [11] concerns HEK293. The experiment in a line: cells. The experiment is classed as functional, cell-based. As to conditions: Homo sapiens.
Experiment [12] in a line: cytotoxicity toward NIH3T3 fibroblasts, dose response, counter-screen, cell-based, ATP luminescence, mouse fibroblasts (AID 2010).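 Also: cells exposed to compound for about 90 hours before reading.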 The experiment is classed as functional. Background: Counterscreens check selectivity or assay interference.
Experiment [13] concerns HEK293. Briefly: cells. The experiment is classed as functional, cell-based. Particulars: Homo sapiens. The source holds these as a separate data set.
Experiment [14] concerns HEK293. Briefly: NOD1 signaling inhibitors, primary screen, cell-based, luminescence, uHTS (AID 1578). Particulars: Homo sapiens. The experiment is classed as functional.
Experiment [15] has as its system HEK293. The experiment in a line: cells. The experiment is classed as functional, cell-based. Particulars: Homo sapiens. This is another data set of the same source.
The nature of experiment [16]: inhibitors of intracellular T. cruzi replication, confirmation, NIH3T3 host cells, beta-gal luminescence (AID 2044).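 Also: intracellular parasites grown in NIH/3T3 mouse fibroblasts as host cells; luminescent beta-galactosidase reporter signal from transgenic T. cruzi replicating inside host cells; inhibitors lower the luminescence signal.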 The experiment is classed as functional, cell-based.
Experiment [17] addresses Nucleotide-binding oligomerization domain-containing protein 2 (Homo sapiens, UniProt Q9HC29). The experiment in a line: NOD2 signaling inhibitors, cell-based, luminescence, uHTS, HEK293 (AID 1566). The experiment is classed as functional.
Experiment [18] has as its system HEK293. The experiment in a line: NOD2 signaling inhibitors in MDP-stimulated cells, cell-based, uHTS, luminescence (AID 2001). The experiment is classed as functional. As to conditions: Homo sapiens.
A short description of experiment [19]: inhibitors of HIV Env-driven cell fusion, dose response, cherry-pick (AID 652057). The experiment is classed as functional, cell-based.
Experiment [20] can be described thus: inhibitors of clade B AD8 Env fusion, dose response, cell-based, cherry-pick (AID 652062).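 Also: luciferase signal from cell-cell fusion driven by HIV-1 clade B AD8 Env; potency is for inhibitors of fusion seen as a drop in luminescence.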 The experiment is classed as functional.
Experiment [21] addresses Voltage-dependent T-type calcium channel subunit alpha-1H (Homo sapiens, UniProt O95180). The experiment is classed as functional.
Experiment [22] can be described thus: ZM109 Env clade C HIV-1 fusion inhibitors, dose response, HeLa effector, CEM target cells, luciferase, cherry-pick (AID 652058). The experiment is classed as functional, cell-based.
In a further experiment the test system is INS1. The experiment in a line: beta cell apoptosis inhibitors, cytokine rescue, dose response, luminescence, retest (AID 449756).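 Also: cell death triggered by IL-1 beta plus TNF-alpha plus IFN-gamma mixture; protective hits raise ATP signal compared with cytokine alone wells.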 The experiment is classed as functional, cell-based. As to conditions: Rattus norvegicus.
A further experiment relates to Streptococcus. The experiment in a line: Group A Streptococcus viability loss, dose response, counter-screen for streptokinase expression inhibitor project, luminescence, BacTiterGlo (AID 1915).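 Also: potency for reduction of bacterial viability or growth.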 The experiment is classed as functional, organism-based.
Experiment [23] in a line: control 3'UTR Renilla luciferase suppression, dose response, counter-screen for Shn3 inhibitor project, cell-based, Clone20-Shn3RL, cherry-picked (AID 624133). The experiment is classed as functional.
For experiment [24], the system named is Streptococcus sp. 'group A'. The experiment in a line: growth inhibition of control SK(-) GAS strain, dose response, counter-screen for streptokinase expression inhibitor project, luminescence, kanamycin, BacTiterGlo, confirmation (AID 1900). The experiment is classed as functional, organism-based.
Experiment [25] can be described thus: HepG2 cell cytotoxicity, dose response, cytotoxicity control for Shn3 inhibitor project, CellTiter-Glo, cherry-picked (AID 624134). The experiment is classed as functional, cell-based.
Another experiment concerns the target Nonstructural protein 1 (Influenza A virus, UniProt Q194T2). The experiment is classed as functional, Influenza A virus (A/California/07/2009(H1N1)).
The target in experiment [26] is Heat shock protein HSP 90-alpha (Homo sapiens, UniProt P07900). The experiment is classed as functional, organism-based.
Experiment [27] deals with T2, Estrogen receptor beta (Homo sapiens, UniProt Q92731).
Experiment [28] has as its target T2, Estrogen receptor beta. The experiment in a line: ERβ–SRC-3 coactivator interaction inhibitors, confirmation, orthogonal assay, biochemical, ELISA, streptavidin-HRP readout (AID 1060).
For a further experiment, the target named is T3, Streptokinase A (Streptococcus pyogenes serotype M1, UniProt P10520).
T3 sequence (P10520 whole entry): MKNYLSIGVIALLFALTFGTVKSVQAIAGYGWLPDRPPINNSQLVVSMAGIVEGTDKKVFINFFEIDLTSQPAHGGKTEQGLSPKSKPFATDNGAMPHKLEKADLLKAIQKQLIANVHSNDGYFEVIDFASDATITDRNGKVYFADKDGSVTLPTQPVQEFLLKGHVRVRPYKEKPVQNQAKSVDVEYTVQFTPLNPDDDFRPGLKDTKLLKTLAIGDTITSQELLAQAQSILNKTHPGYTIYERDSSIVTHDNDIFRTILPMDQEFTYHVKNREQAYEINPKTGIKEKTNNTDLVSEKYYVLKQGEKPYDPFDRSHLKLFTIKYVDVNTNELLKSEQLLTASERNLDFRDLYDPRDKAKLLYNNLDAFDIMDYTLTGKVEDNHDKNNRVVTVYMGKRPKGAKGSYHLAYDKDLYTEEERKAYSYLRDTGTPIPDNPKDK
Briefly: S. pyogenes streptokinase expression inhibitors, potency, dose response, plasminogen activation absorbance, OD405 (AID 1914).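 Also: secreted streptokinase activity via plasminogen activation per viability signal from cell pellet.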 The experiment is classed as functional, Streptococcus pyogenes M1 GAS.

A further experiment concerns the target T4, X-box-binding protein 1 (Homo sapiens, UniProt P17861).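 Also: confirmatory dose-response counter-screen serving a CHOP assay.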
T4 sequence (P17861 whole entry): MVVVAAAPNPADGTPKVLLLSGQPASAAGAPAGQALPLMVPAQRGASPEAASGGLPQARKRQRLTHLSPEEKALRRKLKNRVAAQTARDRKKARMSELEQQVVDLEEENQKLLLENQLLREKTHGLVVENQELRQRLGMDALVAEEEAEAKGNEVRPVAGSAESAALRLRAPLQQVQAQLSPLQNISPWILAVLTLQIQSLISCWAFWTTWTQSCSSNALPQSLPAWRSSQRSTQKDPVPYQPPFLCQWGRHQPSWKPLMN
The experiment is classed as functional, Cricetulus griseus.

T2 sequence (Q92731 whole entry): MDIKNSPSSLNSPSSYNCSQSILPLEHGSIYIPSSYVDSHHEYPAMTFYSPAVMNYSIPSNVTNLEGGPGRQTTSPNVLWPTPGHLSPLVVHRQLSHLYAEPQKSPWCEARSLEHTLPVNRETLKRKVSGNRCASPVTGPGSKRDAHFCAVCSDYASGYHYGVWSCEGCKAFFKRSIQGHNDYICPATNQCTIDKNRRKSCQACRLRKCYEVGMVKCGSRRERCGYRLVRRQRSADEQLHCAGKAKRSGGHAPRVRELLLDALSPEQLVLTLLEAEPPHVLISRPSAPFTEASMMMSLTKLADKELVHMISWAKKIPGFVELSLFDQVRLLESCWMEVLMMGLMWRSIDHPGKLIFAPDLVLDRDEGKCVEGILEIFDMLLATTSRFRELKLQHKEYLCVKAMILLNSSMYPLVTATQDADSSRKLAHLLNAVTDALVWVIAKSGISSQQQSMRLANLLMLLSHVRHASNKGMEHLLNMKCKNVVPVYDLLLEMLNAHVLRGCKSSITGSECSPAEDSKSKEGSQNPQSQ
Chain of Nucleotide-binding oligomerization domain-containing protein 2 (Q9HC29 whole entry, the tested form may be a part): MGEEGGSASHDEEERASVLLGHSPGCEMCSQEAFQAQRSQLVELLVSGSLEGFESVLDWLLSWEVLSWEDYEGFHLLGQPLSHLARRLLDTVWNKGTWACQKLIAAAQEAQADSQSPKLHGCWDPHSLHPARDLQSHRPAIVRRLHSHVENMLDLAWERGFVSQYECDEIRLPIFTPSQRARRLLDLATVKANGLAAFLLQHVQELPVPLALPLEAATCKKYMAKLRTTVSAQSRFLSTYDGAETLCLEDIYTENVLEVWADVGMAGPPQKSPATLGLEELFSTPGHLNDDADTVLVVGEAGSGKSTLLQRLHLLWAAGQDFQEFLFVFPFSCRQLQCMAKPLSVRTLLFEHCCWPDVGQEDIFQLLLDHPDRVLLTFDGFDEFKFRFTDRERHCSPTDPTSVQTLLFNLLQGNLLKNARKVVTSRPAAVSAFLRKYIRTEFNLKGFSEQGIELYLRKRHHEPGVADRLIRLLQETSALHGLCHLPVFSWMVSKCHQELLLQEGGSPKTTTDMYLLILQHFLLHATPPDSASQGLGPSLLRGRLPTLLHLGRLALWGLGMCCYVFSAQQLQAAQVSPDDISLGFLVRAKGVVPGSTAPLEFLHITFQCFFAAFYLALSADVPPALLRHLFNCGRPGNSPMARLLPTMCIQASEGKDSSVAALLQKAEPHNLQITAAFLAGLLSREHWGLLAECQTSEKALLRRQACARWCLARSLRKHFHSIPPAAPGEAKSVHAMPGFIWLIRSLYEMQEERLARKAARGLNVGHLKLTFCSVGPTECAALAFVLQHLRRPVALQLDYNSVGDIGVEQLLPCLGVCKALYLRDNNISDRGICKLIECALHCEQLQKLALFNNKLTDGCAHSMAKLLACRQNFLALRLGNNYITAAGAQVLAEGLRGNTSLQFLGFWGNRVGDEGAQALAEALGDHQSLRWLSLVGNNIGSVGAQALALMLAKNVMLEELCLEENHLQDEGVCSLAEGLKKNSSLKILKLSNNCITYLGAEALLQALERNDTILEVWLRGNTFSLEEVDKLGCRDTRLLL
Chain of Voltage-dependent T-type calcium channel subunit alpha-1H (O95180 whole entry, the tested form may be a part): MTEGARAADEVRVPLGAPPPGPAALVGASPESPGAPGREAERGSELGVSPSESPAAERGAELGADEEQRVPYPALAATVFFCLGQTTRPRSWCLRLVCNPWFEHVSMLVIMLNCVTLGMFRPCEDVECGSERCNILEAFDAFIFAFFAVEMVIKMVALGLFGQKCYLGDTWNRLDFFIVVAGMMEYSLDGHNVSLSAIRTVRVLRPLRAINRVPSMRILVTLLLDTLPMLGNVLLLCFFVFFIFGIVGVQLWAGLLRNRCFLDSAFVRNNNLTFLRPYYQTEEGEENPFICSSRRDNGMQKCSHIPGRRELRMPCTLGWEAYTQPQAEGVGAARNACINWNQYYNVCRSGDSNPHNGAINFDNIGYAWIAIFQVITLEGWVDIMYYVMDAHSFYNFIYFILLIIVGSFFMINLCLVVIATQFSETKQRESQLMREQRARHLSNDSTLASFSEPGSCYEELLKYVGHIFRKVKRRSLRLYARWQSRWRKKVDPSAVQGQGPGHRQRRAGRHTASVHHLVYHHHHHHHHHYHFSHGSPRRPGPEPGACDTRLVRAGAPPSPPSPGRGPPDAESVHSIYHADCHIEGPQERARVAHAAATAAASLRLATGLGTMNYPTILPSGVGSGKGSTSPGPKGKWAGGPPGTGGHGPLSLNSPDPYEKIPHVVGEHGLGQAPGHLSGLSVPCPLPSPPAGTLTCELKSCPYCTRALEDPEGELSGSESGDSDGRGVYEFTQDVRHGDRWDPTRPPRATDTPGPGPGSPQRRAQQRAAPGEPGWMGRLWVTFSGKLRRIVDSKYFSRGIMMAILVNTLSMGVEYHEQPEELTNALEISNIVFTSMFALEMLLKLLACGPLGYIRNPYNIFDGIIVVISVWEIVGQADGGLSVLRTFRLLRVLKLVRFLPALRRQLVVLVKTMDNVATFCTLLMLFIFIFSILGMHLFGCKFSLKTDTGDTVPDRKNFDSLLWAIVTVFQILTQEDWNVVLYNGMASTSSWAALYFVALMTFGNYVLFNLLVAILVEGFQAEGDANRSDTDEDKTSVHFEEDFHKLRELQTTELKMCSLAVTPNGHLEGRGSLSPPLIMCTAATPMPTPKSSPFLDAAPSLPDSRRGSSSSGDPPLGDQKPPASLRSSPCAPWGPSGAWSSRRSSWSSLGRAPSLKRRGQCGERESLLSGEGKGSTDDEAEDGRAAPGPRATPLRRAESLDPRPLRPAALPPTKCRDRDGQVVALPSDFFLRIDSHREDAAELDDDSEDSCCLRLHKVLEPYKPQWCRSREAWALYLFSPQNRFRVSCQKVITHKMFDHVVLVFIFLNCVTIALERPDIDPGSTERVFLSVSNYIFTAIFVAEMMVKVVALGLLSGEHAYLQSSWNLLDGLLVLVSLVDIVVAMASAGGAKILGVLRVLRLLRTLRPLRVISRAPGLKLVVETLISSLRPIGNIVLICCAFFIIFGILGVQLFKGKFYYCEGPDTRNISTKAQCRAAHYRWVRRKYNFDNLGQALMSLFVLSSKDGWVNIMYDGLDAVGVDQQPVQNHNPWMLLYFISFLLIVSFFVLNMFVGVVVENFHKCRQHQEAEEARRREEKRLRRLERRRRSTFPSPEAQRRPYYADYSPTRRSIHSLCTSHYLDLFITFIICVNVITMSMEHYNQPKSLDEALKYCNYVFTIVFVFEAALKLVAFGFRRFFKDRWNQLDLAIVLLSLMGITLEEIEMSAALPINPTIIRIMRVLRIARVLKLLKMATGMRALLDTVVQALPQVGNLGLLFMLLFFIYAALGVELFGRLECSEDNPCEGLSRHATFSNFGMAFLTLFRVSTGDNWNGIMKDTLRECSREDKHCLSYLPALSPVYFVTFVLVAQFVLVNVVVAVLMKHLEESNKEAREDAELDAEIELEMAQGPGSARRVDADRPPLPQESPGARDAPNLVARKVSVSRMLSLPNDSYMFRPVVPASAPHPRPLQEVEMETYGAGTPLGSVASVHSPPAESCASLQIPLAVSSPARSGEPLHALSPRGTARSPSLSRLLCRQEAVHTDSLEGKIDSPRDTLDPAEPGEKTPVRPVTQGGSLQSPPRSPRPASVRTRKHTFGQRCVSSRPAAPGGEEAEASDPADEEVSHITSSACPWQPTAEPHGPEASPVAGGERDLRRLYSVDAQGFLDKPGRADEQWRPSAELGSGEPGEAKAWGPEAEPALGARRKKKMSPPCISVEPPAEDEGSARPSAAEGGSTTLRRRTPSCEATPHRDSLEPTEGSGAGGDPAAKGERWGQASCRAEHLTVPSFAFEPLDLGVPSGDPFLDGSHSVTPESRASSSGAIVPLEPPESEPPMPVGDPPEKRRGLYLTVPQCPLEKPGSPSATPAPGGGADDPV
Chain of Nonstructural protein 1 (Q194T2 whole entry): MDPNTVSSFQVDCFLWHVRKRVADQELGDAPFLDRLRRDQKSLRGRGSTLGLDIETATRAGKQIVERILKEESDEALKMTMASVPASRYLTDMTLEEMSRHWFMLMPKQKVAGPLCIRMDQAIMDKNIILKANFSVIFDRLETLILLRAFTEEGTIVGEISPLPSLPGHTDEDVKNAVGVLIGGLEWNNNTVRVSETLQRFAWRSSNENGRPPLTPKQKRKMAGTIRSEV

Take `CCOc1ccc(C(=O)C(C)OC(=O)c2nc(Cl)ccc2Cl)cc1` (configuration not stated): in [1], the IC50 was > 20 µM (inactive).

As to `CC1(C)CC(=O)c2c(nc(SCC(=O)Nc3nsc(-c4ccccc4)n3)c(C#N)c2-c2ccccc2)C1`, the EC50 in experiment [2] was > 120 µM (not active); in experiment [3], 13.4 µM (active); in the experiment on BJ [4], > 150 µM (not active); in the experiment with BJ [5], 7.76 µM (active); with BJ [7], 0.596 µM (active); with BJ [8] it was > 150 µM (not active). In addition, the EC50 in experiment [9] is > 120 µM (not active); in [10], 35 µM (active). Also, the AC50 in [6] was > 70 µM (inactive).

`O=C(Cc1ccc(Br)cc1)Nc1ncc([N+](=O)[O-])s1`: the concentration for half-maximal inhibition (IC50) with HEK293 [11] was 6.55 µM (active); with HEK293 [13] it was > 20 µM (inactive); with HEK293 [15], > 20 µM (inactive); with HEK293 [18] it was 7.9 µM (inactive). Besides, the 50% effective concentration (EC50) in experiment [12] was > 60 µM (not active); in the experiment with HEK293 [14], 3.15 µM (active); in experiment [16] it was 0.553 µM (active); in experiment [17], > 20 µM (inactive).

Regarding `O=C(CCN1C(=O)/C(=C/c2ccccc2Cl)SC1=S)NCCCN1CCOCC1`, in experiment [1], the IC50 is > 20 µM (inactive).

For `Cc1ccc(-c2nnc(N3CCN(C(=O)COc4ccccc4)CC3)c3ccccc23)cc1`, the AC50 in experiment [19] is 31.6 µM (active); in experiment [20], 34.9 µM (active); in experiment [22] it was 13.9 µM (active). The EC50 in experiment [21] was 4.54 µM (active).

Regarding `O=C(/C=C/c1ccc(F)cc1)NC(=S)NNC(=O)c1cnccn1`, the AC50 in the experiment with INS1 was 1.21 µM (active); in [23], 2.01 µM (active); in experiment [25], > 70 µM (inactive); in [6] it was 1.39 µM (active); in experiment [26], 3.35 µM (active). For the same compound, the EC50 in experiment [2] was 11.7 µM (active); with Streptococcus, 2.75 µM (active); in experiment [3], > 120 µM (not active); in [24], 1.37 µM (active); in [9] it was 10.5 µM (active). Further, the IC50 at Nonstructural protein 1 is 1.56 µM (active).

On to `COc1ccc(NC(=O)CN(c2ccccc2)S(=O)(=O)N(C)C)cc1OC`, for which the figures for the IC50 at Estrogen receptor beta [27] and against Estrogen receptor beta [28] were 10.1 µM (active) and > 109 µM (not active), respectively.

Take `Cc1ccc(-c2nc3cc(NS(=O)(=O)c4ccc(C)cc4)ccc3o2)cc1`: the concentration giving a half-maximal response (EC50) was 5.86 µM (active) at Streptokinase A, 18.1 µM (active) in the experiment on Streptococcus and 5.82 µM (active) in experiment [24]. Besides, the “Absolute IC50 (XBP1)” value at X-box-binding protein 1 was determined as 10 µM.

In the case of `Cc1ccc(-n2c(O)nc3c(C(N)=O)nc(-c4ccc(C)o4)nc32)cc1`, the “Absolute IC50 (XBP1)” value at X-box-binding protein 1 turned out to be 10 µM.

Consider `N#C/C(=C\c1cccc(Oc2ccccc2)c1)C(=O)N1CCOCC1`, for which the half-maximal activity concentration (AC50) in experiment [26] is 8.82 µM (active).
